Laboratory results: patent publication US6420131B1, “Use of fluorescein aryl ethers in high throughput cytochrome P450 inhibition assays” (Gentest Corporation, priority 1999, dated 2002)

What was measured:
Rat CYP1A1 = molecular target: T1, Rat CYP1A1 (Rattus norvegicus, UniProt P00185); assay: Turnover of fluorometric substrates by rat CYP1A1; conditions: substrate uM: Ia 2, AMMC 20, CEC 40, MFC 50, BFC 50, BQ 40, BzRes 50; 30 min; enzyme 50 nM (2.5 nM for CEC)
T1 sequence (P00185 1-524): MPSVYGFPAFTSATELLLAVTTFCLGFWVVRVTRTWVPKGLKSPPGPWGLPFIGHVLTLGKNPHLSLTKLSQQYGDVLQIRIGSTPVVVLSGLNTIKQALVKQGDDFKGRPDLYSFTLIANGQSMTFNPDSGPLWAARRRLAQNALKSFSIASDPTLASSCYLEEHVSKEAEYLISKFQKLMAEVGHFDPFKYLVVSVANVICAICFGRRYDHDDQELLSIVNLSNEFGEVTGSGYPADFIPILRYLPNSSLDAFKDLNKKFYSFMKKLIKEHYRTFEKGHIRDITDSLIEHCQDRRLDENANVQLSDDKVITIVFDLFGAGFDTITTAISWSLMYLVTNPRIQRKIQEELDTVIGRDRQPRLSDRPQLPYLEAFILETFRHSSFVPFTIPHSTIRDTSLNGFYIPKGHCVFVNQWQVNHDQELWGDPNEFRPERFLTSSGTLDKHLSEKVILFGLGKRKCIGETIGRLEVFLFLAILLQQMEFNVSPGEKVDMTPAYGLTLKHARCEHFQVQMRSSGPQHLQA

Rat CYP2D2 = molecular target: T2, Rat CYP2D2 (Rattus norvegicus, UniProt P10634); assay: Turnover of fluorometric substrates by rat CYP2D2
T2 sequence (P10634 1-500): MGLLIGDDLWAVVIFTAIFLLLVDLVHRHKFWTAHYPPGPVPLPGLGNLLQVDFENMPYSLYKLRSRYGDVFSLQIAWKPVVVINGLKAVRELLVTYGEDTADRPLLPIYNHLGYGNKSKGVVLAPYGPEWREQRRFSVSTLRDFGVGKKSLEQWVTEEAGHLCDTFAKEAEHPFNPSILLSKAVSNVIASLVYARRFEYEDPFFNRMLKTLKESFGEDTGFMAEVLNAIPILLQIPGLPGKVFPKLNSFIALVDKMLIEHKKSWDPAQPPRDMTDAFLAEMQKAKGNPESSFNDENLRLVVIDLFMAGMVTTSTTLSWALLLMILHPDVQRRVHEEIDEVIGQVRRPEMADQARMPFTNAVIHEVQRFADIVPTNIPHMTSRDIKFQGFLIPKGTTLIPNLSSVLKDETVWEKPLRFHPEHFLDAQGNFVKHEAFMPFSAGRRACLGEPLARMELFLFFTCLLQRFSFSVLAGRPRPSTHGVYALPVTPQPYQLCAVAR

human CYP3A4 [1] = molecular target: T3, human CYP3A4 (Homo sapiens, UniProt P08684); conditions: for Range: human
[2] = system: panel of Human P450 enzymes; assay: Substrate specificity, dealkylation of Compounds Ia and Ib by a panel of human P450 enzymes; type: biochemical; conditions: various P450s
Description: The specificity of several cytochrome P450 enzymes for the dealkylation of Compound Ia (FIG. 1) and Compound Ib (FIG. 2) was examined.
Example Compounds Ia and Ib. […] Final incubation volume was 0.2 ml.

human CYP3A4 [3] = molecular target: T3, human CYP3A4; assay: High throughput cytochrome P450 inhibition screen, CYP3A4; conditions: Absolute Mean IC50 Values
[4] = system: panel of Human P450 enzymes; assay: Specificity of dealkylation of CMFDE and MF by a panel of human P450 enzymes; type: biochemical; conditions: CYP1A1 and CYP2C19; 1 uM substrate
CYP2C8 [5] = molecular target: T4, CYP2C8 (Homo sapiens, UniProt P10632); assay: High throughput cytochrome P450 inhibition screen, CYP2C8, compound Ia as substrate
T4 sequence (P10632 1-490): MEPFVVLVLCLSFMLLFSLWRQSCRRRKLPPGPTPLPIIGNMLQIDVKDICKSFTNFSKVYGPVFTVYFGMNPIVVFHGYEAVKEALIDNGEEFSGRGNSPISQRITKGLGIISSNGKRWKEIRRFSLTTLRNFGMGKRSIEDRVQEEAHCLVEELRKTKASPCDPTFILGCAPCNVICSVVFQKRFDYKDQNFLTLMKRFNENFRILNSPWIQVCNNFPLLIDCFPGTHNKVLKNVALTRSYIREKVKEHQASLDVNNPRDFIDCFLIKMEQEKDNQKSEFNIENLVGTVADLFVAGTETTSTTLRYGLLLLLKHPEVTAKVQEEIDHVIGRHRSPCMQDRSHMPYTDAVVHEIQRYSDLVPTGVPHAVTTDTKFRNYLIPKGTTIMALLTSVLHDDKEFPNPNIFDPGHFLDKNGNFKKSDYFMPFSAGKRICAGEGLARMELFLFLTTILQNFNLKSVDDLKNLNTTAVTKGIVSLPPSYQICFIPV

CYP2C8 [6] = molecular target: T4, CYP2C8
[7] = substrate: O=C(OCc1ccccc1)c1ccccc1-c1c2ccc(=O)cc-2oc2cc(OCc3ccccc3)ccc12; assay: Enzyme kinetics of substrate turnover by cDNA-expressed CYP2C8; type: biochemical, human; conditions: other: CYP2C8
Description: The evaluation of compounds of Formula I were performed by measuring the kinetics of turnover using cDNA-expressed cytochromes P450 CYP3A4 and CYP2C8. Vmax and Km values are important for the optimization of the assay conditions and for setting the parameters for inhibition experiments.
Example Compound Ia. […] Final incubation volume was 0.2 ml. […] The activity was quantitated by comparing to a standard curve of fluorescein. Apparent Km and Vmax values were calculated by non-linear regression using SigmaPlot software.

T3 sequence (P08684 whole entry): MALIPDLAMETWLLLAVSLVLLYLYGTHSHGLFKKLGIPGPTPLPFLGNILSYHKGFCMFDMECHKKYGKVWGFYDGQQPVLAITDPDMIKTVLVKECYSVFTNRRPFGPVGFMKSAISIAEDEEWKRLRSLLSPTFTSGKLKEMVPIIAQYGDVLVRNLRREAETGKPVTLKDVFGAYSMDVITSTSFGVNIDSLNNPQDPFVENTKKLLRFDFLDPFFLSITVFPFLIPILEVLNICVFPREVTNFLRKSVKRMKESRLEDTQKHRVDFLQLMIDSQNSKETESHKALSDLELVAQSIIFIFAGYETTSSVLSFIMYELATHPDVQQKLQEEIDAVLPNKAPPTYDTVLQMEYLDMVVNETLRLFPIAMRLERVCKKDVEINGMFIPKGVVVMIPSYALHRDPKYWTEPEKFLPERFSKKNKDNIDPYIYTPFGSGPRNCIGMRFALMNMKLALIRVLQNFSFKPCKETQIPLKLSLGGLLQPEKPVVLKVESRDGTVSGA

`CC[N+](C)(CC)CCc1c(C)c2ccc(OC)cc2oc1=O` [AMMC, 3-[2-(N,N-Diethyl-N-methylamino)ethyl]-7-methoxy-4-methylcoumarin] was tested, and the “Turnover Numbers, CYP1A1” value (Rat CYP1A1) was “—^b”, the substrate utilization (Rat CYP2D2; CYP2D2/AMMC, conditions of Table VI) was 45% and the “Turnover Numbers, CYP2D2” value (Rat CYP2D2; substrate uM: Ia 2, AMMC 20, CEC 40, MFC 50, BFC 50, BQ 40, BzRes 50, 30 min, enzyme 50 nM) was 5.9 pmol product/min/pmol enzyme.

Molecule `NC(=O)N1c2ccccc2C=Cc2ccccc21` [Carbamazepine] has a Range (human CYP3A4 [1]) of 5.3.

In the case of `Clc1ccccc1C(c1ccccc1)(c1ccccc1)n1ccnc1` [Clotrimazole], the Range (human CYP3A4 [1]) is reported as 7.9.

`O=C(O)c1ccccc1-c1c2ccc(=O)cc-2oc2cc(OCc3ccccc3)ccc12` [Compound Ib, Monobenzyl Fluorescein] was tested, and the “signal as a substrate” value [2] was “substantially less signal versus Compound Ia”.

Work on `CC[C@H]1OC(=O)[C@H](C)[C@@H](O[C@H]2C[C@@](C)(OC)[C@@H](O)[C@H](C)O2)[C@H](C)[C@@H](O[C@@H]2O[C@H](C)C[C@H](N(C)C)[C@H]2O)[C@](C)(O)C[C@@H](C)C(=O)[C@H](C)[C@@H](O)[C@]1(C)O` [Erythromycin] yielded an IC50 (human CYP3A4 [3]; BFC, substrate BFC) of 4.5 µM, an IC50 (human CYP3A4 [3]; BQ, substrate BQ) of 54.4 µM and an IC50 (human CYP3A4 [3]; BzRes, substrate BzRes) of 1.8 µM. It also gave an IC50 (human CYP3A4 [3]; Overall, mean over the substrates BzRes, BQ, BFC, Ia) of 21.5 µM.

`C#C[C@]1(O)CC[C@H]2[C@@H]3CCc4cc(O)ccc4[C@H]3CC[C@@]21C` [Ethynylestradiol] was tested, and the Range (human CYP3A4 [1]) was 4.5.

In the case of `COc1ccc2c(c1)Oc1cc(O)ccc1C21OC(=O)c2ccccc21` (centres unmarked) [MF, 3-O-methylfluorescein], the “substrate quality based on turnover number” value [4] is reported as “good P450 substrate”.

Molecule `COCC(=O)O[C@]1(CCN(C)CCCc2nc3ccccc3[nH]2)CCc2cc(F)ccc2[C@@H]1C(C)C` [Mibefradil] has a Range (human CYP3A4 [1]) of 12.

`Clc1ccc(COC(Cn2ccnc2)c2ccc(Cl)cc2Cl)c(Cl)c1` (centres unmarked) [Miconazole] showed a Range (human CYP3A4 [1]) of 11.

Molecule `Cc1ncc2n1-c1ccc(Cl)cc1C(c1ccccc1F)=NC2` [Midazolam] has a Range (human CYP3A4 [1]) of 48.

For `CC(=O)[C@H]1CC[C@H]2[C@@H]3CCC4=CC(=O)CC[C@]4(C)[C@H]3CC[C@]12C` [Progesterone], the “Absolute Mean IC50 Values, BFC” value (human CYP3A4 [1]) was “Activation”, the “Absolute Mean IC50 Values, BzRes” value (human CYP3A4 [1]) was “Activation” and the IC50 (human CYP3A4 [3]; BQ, substrate BQ) was over 200 µM. For the same molecule, the IC50 (human CYP3A4 [3]; Ia, substrate compound Ia) was 11.5 µM.

`CC(=O)O[C@H]1C(=O)[C@@]2(C)[C@H]([C@H](OC(=O)c3ccccc3)[C@]3(O)C[C@H](OC(=O)[C@H](O)[C@@H](NC(=O)c4ccccc4)c4ccccc4)C(C)=C1C3(C)C)[C@]1(OC(C)=O)CO[C@@H]1C[C@@H]2O` [paclitaxel] was tested, and the “inhibition of the turnover of compound Ia” value (CYP2C8 [5]) was “inhibited the turnover of compound Ia”.

`Nc1ccc(S(=O)(=O)Nc2ccnn2-c2ccccc2)cc1` [sulfaphenazole] was tested, and the IC50 (CYP2C8 [6]) was “elevated”.

B1: CYP2C8 (Homo sapiens) (protein)
chain: MEPFVVLVLCLSFMLLFSLWRQSCRRRKLPPGPTPLPIIGNMLQIDVKDICKSFTNFSKVYGPVFTVYFGMNPIVVFHGYEAVKEALIDNGEEFSGRGNSPISQRITKGLGIISSNGKRWKEIRRFSLTTLRNFGMGKRSIEDRVQEEAHCLVEELRKTKASPCDPTFILGCAPCNVICSVVFQKRFDYKDQNFLTLMKRFNENFRILNSPWIQVCNNFPLLIDCFPGTHNKVLKNVALTRSYIREKVKEHQASLDVNNPRDFIDCFLIKMEQEKDNQKSEFNIENLVGTVADLFVAGTETTSTTLRYGLLLLLKHPEVTAKVQEEIDHVIGRHRSPCMQDRSHMPYTDAVVHEIQRYSDLVPTGVPHAVTTDTKFRNYLIPKGTTIMALLTSVLHDDKEFPNPNIFDPGHFLDKNGNFKKSDYFMPFSAGKRICAGEGLARMELFLFLTTILQNFNLKSVDDLKNLNTTAVTKGIVSLPPSYQICFIPV
notes: purchased GENTEST Corporation; host or cells: baculovirus/insect cells (microsomes, SUPERSOMES)
B1 was tested, and the Km [7] was 1.4 µM and the kcat [7] was 0.00367 s⁻¹.
